Counter-ions that a name gives are not always drawn.
melting point [°C]	Structure (SMILES)
185 to 200	CC(C)N(C)CC1(c2cccc(C(F)(F)F)c2)CCN(C(=O)CN2CCN(c3cnccn3)CC2)CC1.Cl.Cl.Cl
118	CN(C)CC1(c2cccc(C(F)(F)F)c2)CCN(C(=O)CN2CCN(c3cnccn3)CC2)CC1 [Compound No. 33, 1-[4-[(Dimethylamino)methyl]-4-[3-(trifluoromethyl)phenyl]-1-piperidyl]-2-[4-(2-pyrazinyl)-1-piperazinyl]-1-ethanone]
137 to 139	CNCC1(c2cccc(C(F)(F)F)c2)CCN(C(=O)CN2CCN(c3cnccn3)CC2)CC1 [Compound No. 57, 1-[4-[(Methylamino)methyl]-4-[3-(trifluoromethyl)phenyl]-1-piperidyl]-2-[4-(2-pyrazinyl)-1-piperazinyl]-1-ethanone]
152 to 153	NCC1(c2cccc(C(F)(F)F)c2)CCN(C(=O)CN2CCN(c3cnccn3)CC2)CC1 [Compound No. 4, 1-[4-(Aminomethyl)-4-[3-(trifluoromethyl)phenyl]-1-piperidyl]-2-[4-(2-pyrazinyl)-1-piperazinyl]-1-ethanone]
120	COc1cccc(C2(CN)CCN(C(=O)CN3CCN(c4cnccn4)CC3)CC2)c1.O=C(O)C(=O)O.O=C(O)C(=O)O
160	O=C(CN1CCN(c2ccncn2)CC1)N1CC=C(c2cccc(C(F)(F)F)c2)CC1 (as salt: oxalate) [Compound No. 27, 2-[4-(4-Pyrimidinyl)-1-piperazinyl]-1-[4-[3-(trifluoromethyl)phenyl]-3,6-dihydro-1(2H)-pyridyl]-1-ethanone dioxalate]
138 to 139	NCC1(c2cccc(Cl)c2)CCN(C(=O)CN2CCN(c3cnccn3)CC2)CC1 [Compound No. 65, 1-[4-(Aminomethyl)-4-(3-chlorophenyl)-1-piperidyl]-2-[4-(2-pyrazinyl)-1-piperazinyl]-1-ethanone]
223	O=C(CN1CCN(c2cnccn2)CC1)N1CCC(CO)(c2cccc(C(F)(F)F)c2)CC1 [Compound No. 32, 1-[4-(Hydroxymethyl)-4-[3-(trifluoromethyl)phenyl]-1-piperidyl]-2-[4-(2-pyrazinyl)-1-piperazinyl]-1-ethanone]
